7 molecules from patent publication EP4702986A1, “POLYPEPTIDE AND USE THEREOF” (Biocells (Beijing) Biotech Co., Ltd., priority 2023, dated 2024) can be followed below.

By half-life is commonly meant the time needed for the level to fall by half in the phase considered. A low value points to rapid decline.

Series [1] has as its target T1, human ETA receptor (Homo sapiens, UniProt P25101).
T1 construct: expressed in transfected cells; host or cells: 293T-17 cells, transient transfection
T1 sequence (P25101 21-427): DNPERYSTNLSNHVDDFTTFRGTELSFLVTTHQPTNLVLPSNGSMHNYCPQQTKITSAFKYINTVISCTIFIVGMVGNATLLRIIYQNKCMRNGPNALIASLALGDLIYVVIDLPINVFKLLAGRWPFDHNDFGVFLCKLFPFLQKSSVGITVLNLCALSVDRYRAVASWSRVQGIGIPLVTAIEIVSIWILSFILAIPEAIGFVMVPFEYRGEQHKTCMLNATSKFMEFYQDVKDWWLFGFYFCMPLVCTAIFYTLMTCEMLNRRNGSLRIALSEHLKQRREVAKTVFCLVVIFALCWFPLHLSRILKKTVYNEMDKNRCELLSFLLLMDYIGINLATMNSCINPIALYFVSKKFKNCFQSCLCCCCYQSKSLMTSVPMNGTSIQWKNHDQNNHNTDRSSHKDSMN
As to the kind of experiment: Selectivity of polypeptides on human ETA receptor (IP-One Gq kit, % of positive control ET1). The class given is cell-based. To be noted: read-out: hETAR agonist activity, percentage of activity relative to ET1. On the procedure: 293T-17 cells were seeded at a density of 650,000 cells per well in a 6-well plate and cultured overnight in an incubator at 37°C and 5% CO2. Afterward, the cells were transfected with an expression vector, PCDNA3.1-hETA which contained a human ETA receptor gene, at a plasmid concentration of 2.5 µg per well. The cells were further cultured for 48 hours, and green fluorescence expression was observed under a fluorescence microscope. The cells were then digested with trypsin and counted. The activity of compounds on the human ETA receptor was determined with the IP-One Gq kit from Cisbio Bioassays. The cells were suspended in Stim Buffer provided in the kit and the cell suspension was added to a 96-well detection plate at 7 µL cell suspension (containing 30,000 cells) per well. The polypeptides to be screened for activity (prepared according to the Preparation Example of the invention) and polypeptide human endothelin ET1 as positive control were dissolved in Stim B to be at a concentration of 2×, and 7 µL was added to the test cells, while 7 µL of PBS solution was added to the cells in the negative control wells. Human endothelin ET1 (ET1: […] (C1-C15,C3-C11)) set forth in SEQ ID No. 85 was used as the positive control polypeptide. The plate was sealed and incubated at 37°C for 1 h in a cell culture incubator. Detection wells, positive control wells, and PBS control wells were each added with 3 µL of IP1 d2 working solution and 3 µL of IP1 Tb cryptotate Antibody working solution. The plate was sealed and incubated in the dark at room temperature (25°C±5°C) for 1 h. The plate seal was removed, and the […] at 665 nm and 620 nm was measured with an ID5 microplate reader. The ratio of the acceptor emission signal to the donor emission signal, i.e., the value of (signal at 665 nm/signal at 620 nm)×10^4, was calculated for each well. With F3 representing the average value of values of signal at 665 nm/signal at 620 nm determined for the test sample at a specific concentration, F5 representing the average value of values of signal at 665 nm/signal at 620 nm determined for the positive control human endothelin ET1 at the same concentration, and T3 representing the average value of values of signal at 665 nm/signal at 620 nm determined for the PBS negative control, the percentage of activity of the test polypeptide sample relative to the positive control sample ET1 = (F3-T3)×100/(F5-T3) (see Table 6). hETA sequence (NCBI accession number L06622.1).

Series [2] can be described thus: Determination of half-lives of polypeptides (plasma, LC-MS). To be noted: for half-life: C57 BL/6, mouse, plasma, iv; for AUClast 0-30 min: C57 BL/6 mice, dosage per compound 0.48, 0.96 or 1 mpk; for AUClast 0-30 min / T1/2: i.v.; for T1/2: Table 1, mice.
For series [3], the system named is male SD rats. Description: in vivo. The settings on record: intravenous (tail vein) 240 µg/Kg; one animal per row; observed 24 hours. The method, then:
In an experiment about acute toxicity of intravenous administration, male SD rats weighing 200-230 g were dosed in a range between 480 µg/Kg and 30 µg/Kg via tail vein injection in a descending order of dosage. […] Toxic response and mortality of the rats were preliminarily observed, and time of death and doses without mortality of the rats were recorded. The level of acute toxicity of the polypeptides was preliminarily determined based on the doses without mortality.

SMILES strings stand for the structures. “Also recorded” adds a separate entry of the source. Numbered stars: 1 amine (or outer) side, 2 acyl side, 3 side chain; on linkers, the order of the positions; unused ones are H or OH. Bridge positions count the residues as written; N and C are the ends. Side chains are listed from the residue outwards. Peptide text beside a SMILES is read from it. * marks the point of attachment. C18 diacid = O=C(O)CCCCCCCCCCCCCCCCC(=O)*; γGlu = O=C(O)[C@H](CCC(=O)[*:2])N[*:1]; Ethylenediamine = C(CN[*:2])N[*:1]; Stearoyl = CCCCCCCCCCCCCCCCCC(=O)*; Palmitoyl = CCCCCCCCCCCCCCCC(=O)*; Fumaroyl = O=C(O)/C=C/C(=O)*; Suc = O=C(CCC(=O)[*:2])[*:1]; Lauroyl = CCCCCCCCCCCC(=O)*; AEEA = NCCOCCOCC(=O)O Some results are limits rather than exact numbers.

Take `CC[C@H](C)[C@H](NC(=O)[C@H](CC(=O)O)NC(=O)[C@H](CCCCNC(=O)CC[C@H](NC(=O)COCCOCCNC(=O)COCCOCCNC(=O)CCCCCCCCCCCCCCCCC(=O)O)C(=O)O)NC(=O)[C@H](Cc1c[nH]cn1)NC(=O)[C@H](C)NC(=O)[C@H](Cc1ccccc1)NC(=O)[C@H](Cc1ccc(O)cc1)NC(=O)[C@@H](NC(=O)[C@H](C)NC(=O)[C@H](CCC(=O)O)NC(=O)[C@H](CCC(=O)O)NC(=O)[C@H](CC(=O)O)NC(=O)/C=C/C(=O)O)C(C)C)C(=O)N[C@H](C(=O)N[C@@H](Cc1c[nH]c2ccccc12)C(N)=O)[C@@H](C)CC` [BX-86] (Fumaroyl-DEEAVYFAHK([γGlu-AEEA-AEEA-C18 diacid])DIIW-NH2): in series [1], the activation at 10 µM came to 18.3% and the activation at 100 µM stood at 10.4%. Moreover, in series [2], the half-life stood at 63 min and the “AUClast 0-30 min” value worked out at 1146 ng·h/mL.

On to `CC[C@H](C)[C@H](NC(=O)[C@@H](NC(=O)[C@H](CC(=O)O)NC(=O)[C@H](CC(C)C)NC(=O)[C@H](Cc1c[nH]cn1)NC(=O)[C@H](C)NC(=O)[C@H](Cc1ccccc1)NC(=O)[C@H](Cc1ccc(O)cc1)NC(=O)[C@@H]1CCCCNC(=O)CC[C@H](NC(=O)[C@H](CC(=O)O)NC(=O)CCC(=O)O)C(=O)N[C@@H](CCC(=O)O)C(=O)N[C@@H](C)C(=O)N1)C(C)C)C(=O)N[C@@H](Cc1c[nH]c2ccccc12)C(=O)O` [BX-76] (Suc-DEEAKYFAHLDVIW-OH; lactam 2-5), for which, in series [1], the activation at 10 µM was -20.9% and the activation at 100 µM was -7.56%. Further, in series [2], the half-life is 3.6 min and the “AUClast 0-30 min” value stood at 250 ng·h/mL.

With `CCCCCCCCCCCC(=O)NCCOCCOCC(=O)NCCOCCOCC(=O)N[C@@H](CCC(=O)NCCCC[C@H](NC(=O)[C@H](Cc1c[nH]cn1)NC(=O)[C@H](C)NC(=O)[C@H](Cc1ccccc1)NC(=O)[C@H](Cc1ccc(O)cc1)NC(=O)[C@@H](NC(=O)[C@H](C)NC(=O)[C@H](CCC(=O)O)NC(=O)[C@H](CCC(=O)O)NC(=O)[C@H](CC(=O)O)NC(=O)/C=C/C(=O)O)C(C)C)C(=O)N[C@@H](CC(=O)O)C(=O)N[C@H](C(=O)N[C@H](C(=O)N[C@@H](Cc1c[nH]c2ccccc12)C(=O)O)[C@@H](C)CC)[C@@H](C)CC)C(=O)O` [BX-71] (Fumaroyl-DEEAVYFAHK([γGlu-AEEA-AEEA-Lauroyl])DIIW-OH), in series [1], the activation at 10 µM was -9.66% and the activation at 100 µM is -9.49%. In series [2], the half-life was found to be 23 min, the “AUClast 0-30 min” value turned out to be 2049 ng·h/mL and the T1/2 result was “T1/2=23min;”.

For the molecule `CCCCCCCCCCCCCCCC(=O)NCCOCCOCC(=O)NCCOCCOCC(=O)N[C@@H](CCC(=O)NCCCC[C@H](NC(=O)[C@H](Cc1c[nH]cn1)NC(=O)[C@H](C)NC(=O)[C@H](Cc1ccccc1)NC(=O)[C@H](Cc1ccc(O)cc1)NC(=O)[C@@H](NC(=O)[C@H](C)NC(=O)[C@H](CCC(=O)O)NC(=O)[C@H](CCC(=O)O)NC(=O)[C@H](CC(=O)O)NC(=O)/C=C/C(=O)O)C(C)C)C(=O)N[C@@H](CC(=O)O)C(=O)N[C@H](C(=O)N[C@H](C(=O)N[C@@H](Cc1c[nH]c2ccccc12)C(=O)O)[C@@H](C)CC)[C@@H](C)CC)C(=O)O` [BX-70] (Fumaroyl-DEEAVYFAHK([γGlu-AEEA-AEEA-Palmitoyl])DIIW-OH), in series [1], the activation at 10 µM was -15.8% and the activation at 100 µM turned out to be 13.5%. In series [2], the half-life worked out at 41 min, the “AUClast 0-30 min” value was determined as 1701 ng·h/mL and the T1/2 result was “T1/2=41min;”.

On to `CC[C@H](C)[C@H](NC(=O)[C@H](CC(=O)O)NC(=O)[C@H](CCCCN)NC(=O)[C@H](Cc1c[nH]cn1)NC(=O)[C@H](C)NC(=O)[C@H](Cc1ccccc1)NC(=O)[C@H](Cc1ccc(O)cc1)NC(=O)[C@@H](NC(=O)[C@H](C)NC(=O)[C@H](CCC(=O)O)NC(=O)[C@H](CCC(=O)O)NC(=O)[C@H](CC(=O)O)NC(=O)/C=C/C(=O)O)C(C)C)C(=O)N[C@H](C(=O)N[C@@H](Cc1c[nH]c2ccccc12)C(=O)O)[C@@H](C)CC` [F-BX-5] (Fumaroyl-DEEAVYFAHKDIIW-OH), for which, in series [2], the half-life was below 3 min and the “AUClast 0-30 min” value came to 127 ng·h/mL.

For `CC[C@H](C)[C@H](NC(=O)[C@H](CC(=O)O)NC(=O)[C@H](CC(C)C)NC(=O)[C@H](Cc1c[nH]cn1)NC(=O)[C@H](C)NC(=O)[C@H](Cc1ccccc1)NC(=O)[C@H](Cc1ccc(O)cc1)NC(=O)[C@@H](NC(=O)[C@H](C)NC(=O)[C@H](CCC(=O)O)NC(=O)[C@H](CCC(=O)O)NC(=O)[C@H](CC(=O)O)NC(=O)CCC(=O)NCCNC(=O)COCCOCCNC(=O)COCCOCCNC(=O)CC[C@H](NC(=O)CCCCCCCCCCCCCCCCC(=O)O)C(=O)O)C(C)C)C(=O)N[C@H](C(=O)N[C@@H](Cc1c[nH]c2ccccc12)C(=O)O)[C@@H](C)CC` [BX-256] ({C18 diacid-γGlu-AEEA-AEEA-Ethylenediamine-Suc}-DEEAVYFAHLDIIW-OH), the “Observations of Animal Status” value in series [3] was “Developed rapid breathing and limbs turned pale purple, and developed convulsions at 16 minutes after administration; died at 27 minutes after administration; also recorded: Developed rapid breathing, the limbs and face turned purple, and had weak limbs at 15 minutes after administration; died at 21 minutes after administration”.

In the case of `CCCCCCCCCCCCCCCCCC(=O)NCCOCCOCC(=O)NCCOCCOCC(=O)N[C@@H](CCC(=O)NCCCC[C@H](NC(=O)[C@H](Cc1c[nH]cn1)NC(=O)[C@H](C)NC(=O)[C@H](Cc1ccccc1)NC(=O)[C@H](Cc1ccc(O)cc1)NC(=O)[C@@H](NC(=O)[C@H](C)NC(=O)[C@H](CCC(=O)O)NC(=O)[C@H](CCC(=O)O)NC(=O)[C@H](CC(=O)O)NC(=O)/C=C/C(=O)O)C(C)C)C(=O)N[C@@H](CC(=O)O)C(=O)N[C@H](C(=O)N[C@H](C(=O)N[C@@H](Cc1c[nH]c2ccccc12)C(=O)O)[C@@H](C)CC)[C@@H](C)CC)C(=O)O` [BX-69] (Fumaroyl-DEEAVYFAHK([γGlu-AEEA-AEEA-Stearoyl])DIIW-OH), in series [1], the activation at 10 µM amounted to 13.1% and the activation at 100 µM amounted to 11.5%. Further, in series [2], the half-life was 30 min, the “AUClast 0-30 min” value amounted to 1611 ng·h/mL and the T1/2 entry was “T1/2=30min;”.
